Among the test systems are MALME-3M melanoma; PC-3 prostate; RXF 393 renal; CAKI-1 renal; HS 578T breast; HCT-116 colon; SK-MEL-2 melanoma; SF-268 CNS; HCC-2998 colon; CCRF-CEM leukemia.
Holding throughout (test): NCI tumour cell line growth inhibition, 48 h

Each structure is given as a SMILES string.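 Dose response: 5 concentrations. Exposure: 48 h. Format: 96-well plates. Endpoint: linear interpolation; highest concentration if not reached. Abbreviation: GI50, concentration required for 50% inhibition of growth. Definition used: TGI = concentration required for complete inhibition of growth.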 Where only a bound is given, the exact number is not on record here.

13 compounds from PubChem BioAssay (NCI) can be followed below.

Regarding `COc1ccccc1NC(=O)C(=O)C(C#N)CC(C)(C)C=O` (stereo unspecified), the TGI in the test on MALME-3M melanoma, in the test with PC-3 prostate, in the test on RXF 393 renal, in the test on CAKI-1 renal, in the test on HS 578T breast and in the test with HCT-116 colon was more than 100 µM each time. Also, the TGI in the test with SK-MEL-2 melanoma, with SF-268 CNS and in the test on HCC-2998 colon was more than 100 µM each time.

For the compound `Fc1cccc(C2SCc3nc4ccccc4n32)c1` (stereo unspecified), the TGI in the test with MALME-3M melanoma was more than 100 µM; with RXF 393 renal, more than 10 µM; in the test with CAKI-1 renal it was more than 100 µM; with HCT-116 colon it was more than 100 µM; with SK-MEL-2 melanoma, more than 100 µM; in the test on SF-268 CNS, more than 100 µM. Also, the TGI in the test on CCRF-CEM leukemia and in the test on HCC-2998 colon was more than 100 µM each time.

As to `C[C@]12CC[C@H](O)CC1CCC[C@@H]2O` (stereo partly specified), the TGI in the test with MALME-3M melanoma, with RXF 393 renal, with CAKI-1 renal, in the test with HCT-116 colon, in the test on SK-MEL-2 melanoma and in the test on SF-268 CNS was more than 100 µM in each case. For the same compound, the TGI in the test with CCRF-CEM leukemia and with HCC-2998 colon was more than 100 µM in each case.

For `O=C(O)c1cccc(F)c1C(=O)c1ccc2ccccc2c1`, the TGI with MALME-3M melanoma, in the test on PC-3 prostate, with RXF 393 renal, with CAKI-1 renal, with HS 578T breast and with HCT-116 colon was more than 100 µM in each case. In addition, the TGI in the test on SK-MEL-2 melanoma, with SF-268 CNS and in the test with CCRF-CEM leukemia was more than 100 µM each time.

In the case of `CCCCCCCCCCCC(=O)[O][Sn]([CH2]CCC)([CH2]CCC)[CH2]CCC`, the GI50 in the test on MALME-3M melanoma is 0.0211 µM; in the test on PC-3 prostate, 0.049 µM; in the test with RXF 393 renal it was 0.0483 µM; with CAKI-1 renal, 0.0965 µM; in the test with HS 578T breast, 0.0549 µM; in the test on HCT-116 colon, 0.0379 µM. The GI50 in the test on SK-MEL-2 melanoma is 0.0555 µM; in the test with SF-268 CNS it was 0.0535 µM; in the test on HCC-2998 colon it was 0.0669 µM. Further, the TGI with MALME-3M melanoma was 0.0772 µM; with PC-3 prostate, 0.162 µM; in the test on RXF 393 renal it was 0.117 µM; in the test on CAKI-1 renal it was 0.216 µM; with HS 578T breast, 0.296 µM; with HCT-116 colon it was 0.14 µM. Also, the TGI in the test with SK-MEL-2 melanoma came out at 0.13 µM; in the test on SF-268 CNS, 0.199 µM; in the test on HCC-2998 colon it was 0.187 µM.

Regarding `c1ccc2c(c1)-c1nc3ccccc3cc1C2N1CCOCC1` (stereo unspecified), the TGI in the test on MALME-3M melanoma, in the test on PC-3 prostate, in the test on RXF 393 renal, with CAKI-1 renal, with HS 578T breast and in the test on HCT-116 colon was more than 100 µM throughout. Besides, the TGI in the test with SK-MEL-2 melanoma, in the test on SF-268 CNS and in the test on CCRF-CEM leukemia was more than 100 µM in each case.

In the case of `OC(c1cc2c(Cl)cc(Cl)cc2c2cc(C(F)(F)F)ccc12)C1CCCCN1` (stereo unspecified), the GI50 in the test with MALME-3M melanoma was 1.85 µM; in the test on PC-3 prostate, 1.71 µM; in the test with RXF 393 renal, 1.61 µM; with CAKI-1 renal, 1.68 µM; in the test on HS 578T breast, 1.59 µM; in the test with HCT-116 colon it was 1.67 µM. Further, the GI50 was 2.27 µM with SK-MEL-2 melanoma, 1.86 µM in the test on SF-268 CNS and 1.64 µM in the test with HCC-2998 colon. Also, the TGI came to 3.91 µM with MALME-3M melanoma; 3.26 µM in the test on PC-3 prostate; 3.12 µM in the test with RXF 393 renal; 3.46 µM in the test on CAKI-1 renal; 3.72 µM in the test on HS 578T breast; 3.37 µM with HCT-116 colon. The TGI amounted to 4.12 µM with SK-MEL-2 melanoma, 3.82 µM in the test with SF-268 CNS and 3.24 µM in the test with HCC-2998 colon.

As to `Cc1cc(=O)[nH]c2c1C(=O)C(=O)C=C2`, the GI50 is 29.8 µM in the test on MALME-3M melanoma; 71 µM with PC-3 prostate; 19.4 µM with CAKI-1 renal; 40.4 µM in the test with HS 578T breast; 18.2 µM with HCT-116 colon; more than 100 µM in the test with SK-MEL-2 melanoma. The GI50 in the test with SF-268 CNS is 18.7 µM; in the test on HCC-2998 colon it was more than 100 µM. Moreover, the TGI was 96.8 µM with MALME-3M melanoma; more than 100 µM in the test with PC-3 prostate; 37.4 µM with CAKI-1 renal; more than 100 µM with HS 578T breast; 35.4 µM with HCT-116 colon; more than 100 µM in the test on SK-MEL-2 melanoma. Besides, the TGI with SF-268 CNS was 43.7 µM; in the test with HCC-2998 colon, more than 100 µM.

Turning to `CCC1(O)CC(c2ccccc2)N(C)C(c2ccccc2)C1` (stereo unspecified), the TGI with MALME-3M melanoma, with RXF 393 renal, with CAKI-1 renal, in the test on HCT-116 colon, in the test with SK-MEL-2 melanoma and in the test on SF-268 CNS was more than 100 µM in each case. The TGI in the test on CCRF-CEM leukemia and with HCC-2998 colon was more than 100 µM in each case.

As for `O=C(c1ccccc1)C(c1ccccc1)C1(O)C(=O)Nc2ccc(Br)cc21` (stereo unspecified), the TGI with MALME-3M melanoma, with RXF 393 renal, with CAKI-1 renal, in the test on HCT-116 colon, with SK-MEL-2 melanoma and with SF-268 CNS was more than 100 µM throughout. The TGI in the test with CCRF-CEM leukemia is 47.7 µM; with HCC-2998 colon, more than 100 µM.

Regarding `CCOC(=O)/C(C#N)=C/c1[nH]c(C)c(C)c1C`, the TGI in the test on MALME-3M melanoma, in the test on RXF 393 renal, with CAKI-1 renal, with HCT-116 colon, with SK-MEL-2 melanoma and in the test with SF-268 CNS was more than 100 µM in each case. In addition, the TGI in the test with CCRF-CEM leukemia and in the test with HCC-2998 colon was more than 100 µM throughout.

Consider `COc1ccc2c(c1)[n+](=O)c(C(=O)C/C(=N\NC(=O)C[N+](C)(C)C)C(=O)Nc1cc(Cl)ccc1Cl)c(C)n2O`, for which the TGI in the test on MALME-3M melanoma, in the test on RXF 393 renal, in the test with CAKI-1 renal, with HCT-116 colon, in the test with SK-MEL-2 melanoma and in the test on SF-268 CNS was more than 100 µM in each case. Besides, the TGI with CCRF-CEM leukemia and with HCC-2998 colon was more than 100 µM throughout.

For `COc1ccc2c(c1)cn1c3ccc(OC)cc3[nH]c(=O)c21`, the TGI in the test with MALME-3M melanoma came out at 2.75 µM; in the test on PC-3 prostate, 1.59 µM; with RXF 393 renal it was 1.79 µM; in the test with HCT-116 colon, 1.05 µM; in the test on SK-MEL-2 melanoma, 1.66 µM; with SF-268 CNS, 1.47 µM. The TGI in the test with HCC-2998 colon was found to be 0.0679 µM. The GI50 with PC-3 prostate was less than 0.0154 µM; with RXF 393 renal, 0.0257 µM; in the test with CAKI-1 renal, less than 0.01 µM; with HCT-116 colon it was less than 0.0157 µM; in the test on SK-MEL-2 melanoma, 0.0574 µM; in the test with SF-268 CNS, less than 0.0229 µM. Further, the GI50 in the test on HCC-2998 colon was less than 0.0188 µM.
